Where two headings read alike, the source gives them in different places.
Legend:
root-knot nematode [1] = assay: Systemic Activity (basipetal, foliar spray) against root-knot nematode; assay type: in vivo, Meloidogyne incognita; details: 336 h, read-out: Percent Control; for pest or weed control at 1250 ppm: Table 8, rate 1250 ppm; for pest or weed control at 2000 ppm: Table 8, rate 2000 ppm
Protocol: (§1) Compounds of this invention were tested as follows for nematicidal and anthelmintic activity as dust formulations (initial and residual activity) and as acetone/water formulations (systemic activity). The formulations are described above.
Compounds of the invention were tested for basipetal systemic activity against the root-knot nematode. In this test, tomato plants are grown in 10.2 cm diameter fiber pots containing steam-pasteurized soil mix (50%, soil, 50% sand) until 4-6 true leaves appear. Three of the pots are then placed on a turntable in a spray hood and the plants sprayed with 50 ml of water/acetone solution containing the test compound. The soil surface is covered during the spraying to prevent spraying of the soil. After treatment, the potted plants are placed in a lighted drying chamber. The plants are then grown in a growth chamber at 25° C. for three days and inoculated with a standard nematode culture by incorporating the inoculum into the top cm of soil in the pots. The plants are returned to the growth chamber for about two weeks at which time the pots are allowed to dry until the plants begin to wilt. The roots are shaken free of soil and the degree of galling (swelling) noted as compared to galling of untreated control plants. The results are expressed as Knot Index and Percent Control as defined in the initial root-knot nematode activity tests reported above in Table 2.

stunt nematode = assay: Stunt Nematode Test; assay type: in vivo
lesion nematode = assay: Lesion Nematode Test; assay type: in vivo; details: read-out: Percent Control
Outline: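 Run as the stunt nematode test but on pea seedlings; compounds applied as dust formulations (initial and residual activity) or acetone/water formulations (systemic activity), with untreated samples as reference. Percent control derived by formula.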

[2] = system: root-knot nematode (Meloidogyne incognita); assay: Initial Root-Knot Nematicidal Activity; assay type: in vivo; details: 336 h, read-out: Percent Control; for pest or weed control at 0.078 ppm: Table 2, Application Rate 0.078 ppm; for pest or weed control at 0.156 ppm: Table 2, Application Rate 0.156 ppm
Outline: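 Compound incorporated into Meloidogyne incognita-infested soil at 10 ppm to 0.078 ppm, then planted with tomato or cucumber seedlings. Root galling scored two weeks after planting as a knot index and converted to percent control, given as averages.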

root-knot nematode [3] = assay: Soil Mobility against root-knot nematode; assay type: in vivo, Meloidogyne incognita; details: 336 h
Outline: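 Soil mobility of the nematicidal test material was evaluated by placing treated, nematode-infested soil in 8 cm plastic pots stacked above two or more pots of untreated infested soil, each containing a 10 cm^3 sand layer and filter paper discs. Fifteen cm of water was dripped through, pots drained 16-18 hours, then were planted with cucumber or tomato seedlings and scored for Percent Control.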

Caenorhabditis elegans = assay: C. Elegans Nematode Screening Test and Evaluation (in-vitro); details: Caenorhabditis elegans
Outline: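 Worms (10-15 per well) in buffer with E. coli food, ampicillin and mycostatin; compound added in DMSO, 2-3 replicates per rate. Incubated 5-6 days at 20° C. Population development scored against untreated wells, noting effects such as reduced egg hatch or molting disruption.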

cyst nematode = assay: Cyst Nematode Test; assay type: in vivo; details: read-out: Percent Control
Protocol: as §1
The procedures was substantially the same as described in the stunt nematode test except soybean seedlings were used. "Percent Control" (Table 6 appended) is as defined in the stunt nematode test results.

root-knot nematode [4] = assay: Residual Root-Knot Nematicidal Activity; assay type: in vivo, Meloidogyne incognita; details: read-out: Percent Control
Outline: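 Soil received 5% dust formulation at 5 and 10 ppm test compound and was held in a greenhouse, then infested with root-knot nematode eggs and larvae at 1, 2 and 4 weeks post-treatment. Cucumber or tomato seedlings were planted and scored about two weeks after infestation for Knot Index and Percent Control.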

corn seedling = assay: Phytotoxicity noted in Stunt Nematode Test; assay type: in vivo; parameters: key: *: Some phytotoxicity; details: Table 4a; rate 5 ppm
From the text: The procedure was substantially the same as in the initial root-knot nematode tests described above except that rates of application of formulated compound were 2.5 and 5 ppm in soil containing a corn seedling, with subsequent inoculation of the soil with combined larvae and adult stunt nematodes. The samples were evaulated approximately four weeks after infestation. The results (Tables 4 and 4a appended) indicate good control at the test application rates as compared with untreated samples where no control was observed. "Percent control" means the difference between average population counts between untreated and treated samples, divided by average population count of untreated sample, multiplied by 100.

[5] = 672 h, Table 4a; rate 5 ppm; read-out: Percent Control
[6] = Table 2, Application Rate 0.625 ppm
[7] = Table 2, Application Rate 1.25 ppm
[8] = Table 2, Application Rate 2.5 ppm
[9] = Table 7a, 5% dust, 5 ppm, BOTTOM container, read-out: Percent Control
[10] = Table 7a, 5% dust, 5 ppm, MIDDLE container, read-out: Percent Control
[11] = Table 7a, 5% dust, 5 ppm, TOP container, read-out: Percent Control
[12] = Table 9 screen, 5 ppm, read-out: Percent Inhibition of Reproduction
[13] = Table 9 screen, 5 ppm, read-out: Percent Mortality
[14] = 168 h, Table 3a, 5% dust, 5 ppm, inoculation 1 week post-treatment
[15] = 336 h, Table 3a, 5% dust, 5 ppm, inoculation 2 weeks post-treatment
[16] = 672 h, Table 3a, 5% dust, 5 ppm, inoculation 4 weeks post-treatment
[17] = Table 2, Application Rate 0.312 ppm
[18] = read-out: Percent Control, Table 7a, 5% dust, 5 ppm, MIDDLE container

SMILES	pest or weed control at 2000 ppm (root-knot nematode [1]; foliar) [%]	pest or weed control at 5 ppm (stunt nematode; [5]) [%]	pest or weed control at 2.5 ppm (lesion nematode; Table 5, rate 2.5 ppm) [%]	pest or weed control at 0.078 ppm [2] [%]	pest or weed control at 0.156 ppm [2] [%]	pest or weed control at 0.625 ppm [2, 6] [%]	pest or weed control at 1.25 ppm [2, 7] [%]	pest or weed control at 2.5 ppm [2, 8] [%]	pest or weed control at 5 ppm (root-knot nematode [3]; [9]) [%]	pest or weed control at 5 ppm (root-knot nematode [3]; [10]) [%]	pest or weed control at 5 ppm (root-knot nematode [3]; [11]) [%]	inhibition at 5 ppm (Caenorhabditis elegans; [12]) [%]	mortality at 5 ppm (Caenorhabditis elegans; [13]) [%]	pest or weed control at 5 ppm (cyst nematode; Table 6, rate 5 ppm) [%]	pest or weed control at 5 ppm (root-knot nematode [4]; [14]) [%]	pest or weed control at 5 ppm (root-knot nematode [4]; [15]) [%]	pest or weed control at 5 ppm (root-knot nematode [4]; 672 h) [%]	pest or weed control at 5 ppm (root-knot nematode [4]; [16]) [%]	pest or weed control at 0.312 ppm [2, 17] [%]	other results
C=CCSc1nnc(SCCC(F)=C(F)F)s1 [Compound 31, 2-(2-propenylthio)-5-(3,4,4-trifluoro-3-butenylthio)-1,3,4-thiadiazole]	71	52	11	0	13	78	96	99	50	86	98	38	0	7	97	97	95	–	–	pest or weed control at 1250 ppm (root-knot nematode [1]; foliar): 0%
FC(F)=C(F)CCSc1nnc(Cc2ccc(F)cc2)o1 [Compound 45, 2-(4-fluorophenylmethyl)-5-(3,4,4-trifluoro-3-butenylthio)-1,3,4-oxadiazole]	–	80	41	–	–	99	99	99	83	97	98	25	0	–	99	100	–	98	–	pest or weed control at 0.312 ppm [2]: 95%; Some phytotoxicity (corn seedling): *
O=[N+]([O-])c1ccc(CSc2nnc(SCCC(F)=C(F)F)s2)cc1 [Compound 35, 2-(4-nitrophenylmethylthio)-5-(3,4,4-trifluoro-3-butenylthio)-1,3,4-thiadiazole]	0	77	–	0	6	–	98	100	0	50	99	100	100	0	99	96	–	84	67	mortality at 5 ppm (Caenorhabditis elegans; Table 10 evaluation, 5 ppm, read-out: Percent Mortality): 100%; inhibition at 1.25 ppm (Caenorhabditis elegans; Table 10 evaluation, 1.25 ppm, read-out: Percent Inhibition of Reproduction): 100%; mortality at 1.25 ppm (Caenorhabditis elegans; Table 10 evaluation, 1.25 ppm, read-out: Percent Mortality): 100%; inhibition at 2.5 ppm (Caenorhabditis elegans; Table 10 evaluation, 2.5 ppm, read-out: Percent Inhibition of Reproduction): 100%; mortality at 2.5 ppm (Caenorhabditis elegans; Table 10 evaluation, 2.5 ppm, read-out: Percent Mortality): 100%
FC(F)=C(F)CCSc1nnc(Cc2ccccc2F)o1 [Compound 44, 2-(2-fluorophenylmethyl)-5-(3,4,4-trifluoro-3-butenylthio)-1,3,4-oxadiazole]	–	75	88	–	–	76	86	98	96	100	100	25	0	59	100	100	–	100	50	–
FC(F)=C(F)CCSc1nnc(SCc2cccs2)s1 [Compound 36, 2-(2-thienylmethylthio)-5-(3,4,4-trifluoro-3-butenylthio)-1,3,4-thiadiazole]	97	–	–	0	25	96	99	100	0	–	97	–	–	37	98	99	95	–	69	pest or weed control at 1250 ppm (root-knot nematode [1]): 17%; pest or weed control at 1.25 ppm (lesion nematode; Table 5, rate 1.25 ppm): 2%; pest or weed control at 0.625 ppm (lesion nematode; Table 5, rate .625 ppm): 0%; pest or weed control at 5 ppm (root-knot nematode [3]; [18]): 17%
FC(F)=C(F)CCSc1nnc(Cc2ccc(F)cc2F)o1 [Compound 46, 2-(2,4-difluorophenylmethyl)-5-(3,4,4-trifluoro-3-butenylthio)-1,3,4-oxadiazole]	–	65	77	–	–	98	98	99	78	97	96	–	–	–	99	100	–	99	85	Some phytotoxicity (corn seedling): *
FCCSc1nnc(SCCC(F)=C(F)F)s1 [Compound 27, 2-(2-fluoroethylthio)-5-(3,4,4-trifluoro-3-butenylthio)-1,3,4-thiadiazole]	–	–	–	–	–	–	–	–	–	–	–	–	0	–	–	–	99	–	–	pest or weed control at 5 ppm (stunt nematode; 672 h; Table 4a; rate 5 ppm; read-out: Percent Control): 62%; pest or weed control at 2.5 ppm (lesion nematode): 63%; pest or weed control at 0.312 ppm [2]: 31%; pest or weed control at 0.625 ppm [2]: 79%; pest or weed control at 1.25 ppm [2]: 99%; pest or weed control at 2.5 ppm [2]: 100%; pest or weed control at 5 ppm (root-knot nematode [3]; read-out: Percent Control, Table 7a, 5% dust, 5 ppm, BOTTOM container): 100%; pest or weed control at 5 ppm (root-knot nematode [3]; [18]): 100%; pest or weed control at 5 ppm (root-knot nematode [3]; read-out: Percent Control, Table 7a, 5% dust, 5 ppm, TOP container): 99%; inhibition at 5 ppm (Caenorhabditis elegans; read-out: Percent Inhibition of Reproduction): 38%; pest or weed control at 5 ppm (cyst nematode): 57%; pest or weed control at 5 ppm (root-knot nematode [4]; 168 h): 99%; pest or weed control at 5 ppm (root-knot nematode [4]; 336 h): 97%

Reference: US4952580A, “Pesticidal polyhaloalkene derivatives” (priority 1988, dated 1990)
